Assay results: BigSolDB 2.1

C=C1C[C@]23C[C@@]1(O)CC[C@H]2[C@@]12C=C[C@H](O)[C@@](C)(C(=O)O1)[C@H]2[C@@H]3C(=O)O
solubility (mole fraction)
Details	278.15 K	283.15 K	288.15 K	293.15 K	298.15 K	303.15 K	308.15 K	313.15 K	318.15 K	323.15 K
in DMSO	0.121	0.138	0.159	0.184	0.207	0.233	0.263	0.291	0.323	0.362
in THF	0.149	0.173	0.199	0.227	0.252	0.279	0.31	0.341	0.371	0.401
in acetone	0.103	0.12	0.137	0.158	0.181	0.205	0.23	0.258	0.289	0.32
in acetonitrile	0.00864	0.0119	0.0155	0.0197	0.0243	0.0294	0.0352	0.0413	0.0481	0.0565
in chloroform	0.0222	0.0302	0.0386	0.0479	0.0591	0.0715	0.085	0.0994	0.114	0.13
in ethanol	0.181	0.205	0.231	0.257	0.284	0.312	0.344	0.374	0.404	0.438
in ethyl acetate	0.0679	0.0807	0.0956	0.112	0.132	0.152	0.175	0.203	0.235	0.271
in isopropanol	0.000502	0.000563	0.000625	0.000688	0.000752	0.000821	0.000888	0.00096	0.00103	0.00111
in n-butanol	0.0021	0.00318	0.00427	0.00554	0.00704	0.00876	0.0107	0.0129	0.0151	0.0173
in n-heptane	8.4e-05	0.000116	0.000152	0.000192	0.000236	0.000289	0.000349	0.000407	0.000471	0.000537
in n-hexane	0.00017	0.000202	0.000239	0.000282	0.00033	0.000386	0.000444	0.000511	0.000583	0.000666
